From patent publication EP0900211B1 (PHARMACIA & UPJOHN COMPANY, priority 1996, dated 1997)
Structures can show the parent of a compound that is named as a salt.

Molecular target: Stromelysin (Homo sapiens, UniProt P08254)
Experiment: MMP inhibition, particle concentration fluorescence assay
Assay type: biochemical
Conditions: in vitro; fluorescein/biotin substrate; MMP buffer pH 7.5; room temperature
Experimental: Inhibitory activity is evaluated in one or more of the MMP enzymes (stromelysin, gelatinase, and collagenase) in vitro using particle concentration fluorescence assay. An inhibitor binds to MMP enzymes which prevents the degradation of a substrate by stromelysin, gelatinase, or collagenase. The substrate has attached to it a fluorescein and a biotin moiety. The intact substrate then binds to an avidin-coated particle via the biotin moiety. Once the particle is washed and dried, a fluorescent signal is generated since the fluorescent group is attached to the particle. Without an inhibitor present, the substrate is degraded by MMP enzymes and the fluorescein group is removed, therefore, no fluorescent signal can be detected. Testing compounds are dissolved in DMSO to the desired concentration, then the solutions are diluted to 1:5 with MMP buffer (50 mM Tris-HCl, pH 7.5; 150 mM NaCl; 0.02% NaN3). Serial two-fold dilutions of each compound are prepared. A concentrated, activated enzyme solution is transferred into each plate of the testing compounds, and the mixture is incubated at room temperature for 15 minutes. […] At this point, the substrate mixture is mixed with 0.1% avidin-coated polystyrene particles. After 15 minutes, the fluorescence values are measured following filtration and washing of the beads. Ki values are then calculated.

Chain of Stromelysin (P08254 100-477): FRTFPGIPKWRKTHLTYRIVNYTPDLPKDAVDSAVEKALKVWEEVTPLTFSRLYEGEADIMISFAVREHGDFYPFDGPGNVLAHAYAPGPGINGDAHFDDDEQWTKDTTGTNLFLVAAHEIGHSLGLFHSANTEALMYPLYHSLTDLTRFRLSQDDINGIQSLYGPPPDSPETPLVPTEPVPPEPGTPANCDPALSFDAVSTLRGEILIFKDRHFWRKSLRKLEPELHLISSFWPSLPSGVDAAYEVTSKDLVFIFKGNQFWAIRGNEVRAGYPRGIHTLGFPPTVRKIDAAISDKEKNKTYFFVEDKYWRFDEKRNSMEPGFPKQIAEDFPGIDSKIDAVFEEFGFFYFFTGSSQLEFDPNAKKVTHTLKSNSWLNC

| Compound | Ki [nM] |
| --- | --- |
| O=C(Nc1n[nH]c(=S)s1)N[C@@H](Cc1ccccc1)C(=O)NCCN1CCOCC1 [Example 19, α-[[[(4,5-Dihydro-5-thioxo-1,3,4-thiadiazol-2-yl)amino]carbonyl]-amino]-N-[2-(4-morpholinyl)ethyl]-(S)-benzenepropanamide] | 1990 |
| CC(C)C[C@H](NC(=O)Nc1n[nH]c(=S)s1)C(=O)NCCc1ccccc1 [Example 28, 2-[[[(4,5-Dihydro-5-thioxo-1,3,4-thiadiazol-2-yl)amino]-carbonyl]amino]-4-methyl-N-(2-phenylethyl)-(S)-pentanamide] | 3490 |
| O=C(Nc1n[nH]c(=S)s1)N[C@@H](Cc1ccccc1)C(=O)NCCCCc1ccccc1 [Example 37, aα-[[[(4,5-Dihydro-5-thioxo-1,3,4-thiadiazol-2-yl)amino]carbonyl]amino]-N-(4-phenylbutyl)-(S)-benzenepropanamide] | 820 |
| CNC(=O)CCNC(=O)[C@H](Cc1ccccc1)NC(=O)Nc1n[nH]c(=S)s1 [Example 43] | 1340 |
| COC(=O)[C@H](CO[Si](C)(C)C(C)(C)C)NC(=O)Nc1n[nH]c(=S)s1 [Example 45, N-[[(4,5-Dihydro-5-thioxo-1,3,4-thiadiazol-2-yl)amino]carbonyl]-O-[(1,1-dimethylethyl)dimethylsilyl]-L-serine methyl ester] | 1530 |
| CNC(=O)[C@H](CO[Si](C)(C)C(C)(C)C)NC(=O)Nc1n[nH]c(=S)s1 [Example 46, 2-[[[(4,5-Dihydro-5-thioxo-1,3,4-thiadiazol-2-yl)amino]carbonyl]amino]-3-[(1,1-dimethylethyl)-dimethylsilyloxy]-N-methyl-(S)-propanamide] | 750 |
| COC(=O)[C@H](Cc1ccc(O[Si](C)(C)C(C)(C)C)cc1)NC(=O)Nc1n[nH]c(=S)s1 [Example 47, N-[[(4,5-Dihydro-5-thioxo-1,3,4-thiadiazol-2-yl)amino]carbonyl]-O-[(1,1-dimethylethyl)dimethylsilyl]-L-tyrosine methyl ester] | 6370 |
| O=C(Nc1n[nH]c(=S)s1)N[C@@H](Cc1ccccc1)C(=O)NCc1ccc2c(c1)OCO2 [Example 49, α-[[[(4,5-Dihydro-5-thioxo-1,3,4-thiadiazol-2-yl)amino]-carbonyl]amino]-N-(piperonyl)-(S)-benzenepropanamide] | 1000 |
| O=C(Nc1n[nH]c(=S)s1)N[C@@H](Cc1ccccc1)C(=O)N1CCN(c2ccccc2)CC1 [Example 50, (S)-1-[2-[[[(4,5-Dihydro-5-thioxo-1,3,4-thiadiazol-2-yl)amino]carbonyl]amino]-1-oxo-3-phenylpropyl]-4-phenylpiperazine] | 1680 |
| O=C(Nc1n[nH]c(=S)s1)N[C@@H](Cc1ccccc1)C(=O)N1CCN(C(c2ccccc2)c2ccccc2)CC1 [Example 55, (S)-1-[2-[[[(4,5-Dihydro-5-thioxo-1,3,4-thiadiazol-2-yl)amino]carbonyl]amino]-1-oxo-3-phenylpropyl]-4-(benzhydryl)piperazine] | 4250 |
| O=C(Nc1n[nH]c(=S)s1)N[C@@H](Cc1ccccc1)C(=O)N1CCNCC1 [Example 56, (S)-1-[2-[[[(4,5-Dihydro-5-thioxo-1,3,4-thiadiazol-2-yl)amino]carbonyl]amino]-1-oxo-3-phenylpropyl]piperazine trifluoroacetate] | 5270 |
| O=C(Nc1n[nH]c(=S)s1)N[C@@H](Cc1ccccc1)C(=O)NCc1nc2ccccc2[nH]1 [Example 57, N-(1H-Benzimidazol-2-ylmethyl)-α-[[[(4,5-dihydro-5-thioxo-1,3,4-thiadiazol-2-yl)amino]carbonyl]amino]-(S)-benzenepropanamide] | 640 |
| O=C(Nc1n[nH]c(=S)s1)N[C@@H](Cc1ccccc1)C(=O)NCc1cccc2ccccc12 [Example 58, α-[[[(4,5-Dihydro-5-thioxo-1,3,4-thiadiazol-2-yl)amino]carbonyl]amino)-N-(1-naphthylmethyl)-(S)-benzenepropanamide] | 800 |
| O=C(Nc1n[nH]c(=S)s1)N[C@@H](CC1CCCCC1)C(=O)NCCc1ccccc1 [Example 62, α-[[[(4,5-Dihydro-5-thioxo-1,3,4-thiadiazol-2-yl)amino]carbonyl]amino]-N-(2-phenylethyl)-(S)-cyclohexanepropanamide] | 650 |

Now from value to compound:

| Ki [nM] | Compound |
| --- | --- |
| 300 | O=C(Nc1n[nH]c(=S)s1)N[C@@H](Cc1ccccc1)C(=O)NCCc1ccccc1 [Example 6, α-[[[(4,5-Dihydro-5-thioxo-1,3,4-thiadiazol-2-yl)amino]carbonyl]-amino]-N-(2-phenylethyl)-(S)-benzenepropanamide] |
| 1100 | O=C(Nc1n[nH]c(=S)s1)N[C@@H](Cc1ccccc1)C(=O)NCc1ccccn1 [Example 7, α-[[[(4,5-Dihydro-5-thioxo-1,3,4-thiadiazol-2-yl)amino]carbonyl]-amino]-N-(2-pyridinylmethyl)-(S)-benzenepropanamide] |
| 2500 | CNC(=O)[C@H](Cc1c[nH]c2ccccc12)NC(=O)Nc1n[nH]c(=S)s1 [Example 13, α-[[[(4,5-Dihydro-5-thioxo-1,3,4-thiadiazol-2-yl)amino]carbonyl]-amino]-N-methyl-(S)-1H-indole-3-propanamide] |
| 1270 | O=C(Nc1n[nH]c(=S)s1)N[C@@H](Cc1ccccc1)C(=O)NCc1ccncc1 [Example 17, α-[[[(4,5-Dihydro-5-thioxo-1,3,4-thiadiazol-2-yl)amino]-carbonyl]amino]-N-(4-pyridinylmethyl)-(S)-benzenepropanamide] |
| 2010 | O=C(Nc1n[nH]c(=S)s1)N[C@@H](Cc1ccccc1)C(=O)NCc1cccnc1 [Example 18, α-[[[(4,5-Dihydro-5-thioxo-1,3,4-thiadiazol-2-yl)amino]carbonyl]-amino]-N-(3-pyridinylmethyl)-(S)-benzenepropanamide] |
| 800 | CNC(=O)C(Cc1ccc(Br)cc1)NC(=O)Nc1n[nH]c(=S)s1 (stereo not drawn) [Example 20, α-[[[(4,5-Dihydro-5-thioxo-1,3,4-thiadiazol-2-yl)amino]carbonyl]-amino]-N-methyl-4-bromobenzene-propanamide] |
| 7660 | COC(=O)[C@@H](NC(=O)Nc1n[nH]c(=S)s1)c1ccccc1 [Example 24, (S)-N-[[(4,5-Dihydro-5-thioxo-1,3,4-thiadiazol-2-yl)amino]carbonyl]-2-phenylglycine methyl ester] |
| 4420 | CC(C)C[C@H](NC(=O)Nc1n[nH]c(=S)s1)C(=O)NCc1ccccc1 [Example 29, 2-[[[(4,5-Dihydro-5-thioxo-1,3,4-thiadiazol-2-yl)amino]carbonyl]amino]-4-methyl-N-(phenylmethyl)-(S)-pentanamide] |
| 2750 | COC(=O)[C@H](Cc1ccc(OC)cc1)NC(=O)Nc1n[nH]c(=S)s1 [Example 30, N-[[(4,5-Dihydro-5-thioxo-1,3,4-thiadiazol-2-yl)amino]carbonyl]-O-methyl-L-tyrosine methyl ester] |
| 1870 | COC(=O)[C@H](Cc1ccc([N+](=O)[O-])cc1)NC(=O)Nc1n[nH]c(=S)s1 [Example 32, N-[[(4,5-Dihydro-5-thioxo-1,3,4-thiadiazol-2-yl)amino]carbonyl]-L-(4-nitrophenyl)alanine methyl ester] |
| 210 | O=C(Nc1n[nH]c(=S)s1)N[C@@H](Cc1ccc([N+](=O)[O-])cc1)C(=O)NCCc1ccccc1 [Example 34, α-[[[(4,5-Dihydro-5-thioxo-1,3,4-thiadiazol-2-yl)amino]carbonyl]amino]-4-nitro-N-(2-phenylethyl)-(S)-benzenepropanamide] |
| 350 | CCCCNC(=O)[C@H](Cc1ccc([N+](=O)[O-])cc1)NC(=O)Nc1n[nH]c(=S)s1 [Example 35, N-Butyl-α-[[[(4,5-dihydro-5-thioxo-1,3,4-thiadiazol-2-yl)amino]carbonyl]amino]-4-nitro-(S)-benzenepropanamide] |
| 1120 | O=C(Nc1n[nH]c(=S)s1)N[C@@H](Cc1ccccc1)C(=O)NCCCO [Example 41, α-[[[(4,5-Dihydro-5-thioxo-1,3,4-thiadiazol-2-yl)amino]-carbonyl]amino]-N-(3-hydroxypropyl)-(S)-benzenepropanamide] |
| 780 | CCOC(=O)CCNC(=O)[C@H](Cc1ccccc1)NC(=O)Nc1n[nH]c(=S)s1 [Example 42, N-[[(4,5-Dihydro-5-thioxo-1,3,4-thiadiazol-2-yl)amino]carbonyl]-L-phenylalanyl-β-alanine ethyl ester] |
| 1080 | O=C(O)CCNC(=O)[C@H](Cc1ccccc1)NC(=O)Nc1n[nH]c(=S)s1 [Example 44] |
| 1020 | O=C(Nc1n[nH]c(=S)s1)N[C@@H](Cc1ccccc1)C(=O)NCCCc1ccccc1 [Example 51, α-[[[(4,5-Dihydro-5-thioxo-1,3,4-thiadiazol-2-yl)amino]carbonyl]amino]-N-(3-phenylpropyl)-(S)-benzenepropanamide] |
| 750 | O=C(Nc1n[nH]c(=S)s1)N[C@@H](Cc1ccccc1)C(=O)NCc1ccc(C(F)(F)F)cc1 [Example 52, α-[[[(4,5-Dihydro-5-thioxo-1,3,4-thiadiazol-2-yl)amino]carbonyl]-amino]-N-[(4-trifluoromethylphenyl)methyl]-(S)-benzenepropanamide] |
| 1310 | O=C(Nc1n[nH]c(=S)s1)N[C@@H](Cc1ccccc1)C(=O)NCc1ccc([N+](=O)[O-])cc1 [Example 53, α-[[[(4,5-Dihydro-5-thioxo-1,3,4-thiadiazol-2-yl)amino]carbonyl]amino]-N-[(4-nitrophenyl)methyl]-(S)-benzenepropanamide] |
| 1740 | CC(C)(C)c1ccc(CNC(=O)[C@H](Cc2ccccc2)NC(=O)Nc2n[nH]c(=S)s2)cc1 [Example 54, α-[[[(4,5-Dihydro-5-thioxo-1,3,4-thiadiazol-2-yl)amino]-carbonyl]amino]-N-[[4-(1,1-dimethylethyl)phenyl]methyl]-(S)-benzenepropanamide] |
| 2950 | COC(=O)[C@H](Cc1ccc(N)cc1)NC(=O)Nc1n[nH]c(=S)s1 [Example 59, N-[[(4,5-Dihydro-5-thioxo-1,3,4-thiadiazol-2-yl)amino]carbonyl]-L-(4-aminophenyl)alanine methyl ester] |
| 2390 | COC(=O)[C@H](COCc1ccccc1)NC(=O)Nc1n[nH]c(=S)s1 [Example 63, N-[[(4,5-Dihydro-5-thioxo-1,3,4-thiadiazol-2-yl)amino]carbonyl]-O-(phenylmethyl)-L-serine methyl ester] |
